{
  "source": "patent US20210153773A1",
  "about": "“DEVICE AND METHOD FOR DETECTION AND MONITORING OF COUGH” (priority 2019, published 2021)",
  "system": "cough reflex",
  "experiment": "Citric acid spray tussive challenge (cough provocation)",
  "settings": "50 mg/mL in distilled water, perfume sprayer held about 1 foot from the nose, ~0.07 to 0.10 mL per activation, every subject tested (n=10)",
  "description": "When held at about 1 foot in front of the nose and activated, a fine spray of ˜0.07 to 0.10 mL is released per activation.",
  "data": [
    {"smiles": "O=C(O)CC(O)(CC(=O)O)C(=O)O", "note": "[citric acid]", "values": [
      {"measurement": "number of coughs provoked by inhaled spray", "value": "one to six"}
    ]}
  ]
}
